According to PubChem BioAssay AID248 (DTP/NCI, 2004):
Toxic doses and inconclusive results are not listed.

Tested on: L1210 leukemia ip in BDF1 mice, survival T/C
Experiment: NCI In Vivo Anticancer Drug Screen. Data for tumor model L1210 Leukemia (intraperitoneal) in B6D2F1 (BDF1) mice
Conditions: endpoint: mean survival time, higher = longer survival
In short: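 Tumor cells were implanted, animals were treated, and survival was followed. The result divides the treated measurement by the vehicle-control measurement.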

[1] = dose: 100.0 mg/kg/injection, schedule: Q04DX003 (ip), vehicle: Klucel (hydroxypropylcellulose) (HPC)
[2] = dose: 200.0 mg/kg/injection, schedule: Q04DX003 (ip), vehicle: Klucel (hydroxypropylcellulose) (HPC)
[3] = dose: 400.0 mg/kg/injection, schedule: Q04DX003 (ip), vehicle: Klucel (hydroxypropylcellulose) (HPC)
[4] = dose: 100.0 mg/kg/injection, schedule: Q01DX009 (ip), vehicle: saline with Tween-80
[5] = dose: 200.0 mg/kg/injection, schedule: Q01DX009 (ip), vehicle: saline with Tween-80
[6] = dose: 100.0 mg/kg/injection, schedule: Q04DX003 (ip), vehicle: saline
[7] = dose: 200.0 mg/kg/injection, schedule: Q04DX003 (ip), vehicle: saline
[8] = dose: 400.0 mg/kg/injection, schedule: Q04DX003 (ip), vehicle: saline
[9] = dose: 100.0 mg/kg/injection, schedule: Q04DX003 (ip), vehicle: saline with Tween-80
[10] = dose: 200.0 mg/kg/injection, schedule: Q04DX003 (ip), vehicle: saline with Tween-80
[11] = dose: 400.0 mg/kg/injection, schedule: Q04DX003 (ip), vehicle: saline with Tween-80
[12] = dose: 100.0 mg/kg/injection, schedule: Q01DX009 (ip), vehicle: Klucel (hydroxypropylcellulose) (HPC)
[13] = dose: 200.0 mg/kg/injection, schedule: Q01DX009 (ip), vehicle: Klucel (hydroxypropylcellulose) (HPC)
[14] = dose: 400.0 mg/kg/injection, schedule: Q01DX009 (ip), vehicle: Klucel (hydroxypropylcellulose) (HPC)
[15] = dose: 400.0 mg/kg/injection, schedule: Q01DX009 (ip), vehicle: saline with Tween-80
[16] = dose: 100.0 mg/kg/injection, schedule: Q01DX001 (ip), vehicle: other
[17] = dose: 100.0 mg/kg/injection, schedule: Q04DX003 (ip), vehicle: other
[18] = dose: 200.0 mg/kg/injection, schedule: Q01DX001 (ip), vehicle: other
[19] = dose: 200.0 mg/kg/injection, schedule: Q04DX003 (ip), vehicle: other
[20] = dose: 400.0 mg/kg/injection, schedule: Q01DX001 (ip), vehicle: other
[21] = dose: 400.0 mg/kg/injection, schedule: Q04DX003 (ip), vehicle: other
[22] = dose: 100.0 mg/kg/injection, schedule: Q04DX002 (ip), vehicle: saline with Tween-80

For `Nc1cc(NC(c2ccccc2)c2ccccc2)c([N+](=O)[O-])c(N)n1`, the T/C (dose: 100.0 mg/kg/injection, schedule: Q01DX001 (ip), vehicle: saline with Tween-80) was 98 % of control, the T/C (dose: 200.0 mg/kg/injection, schedule: Q01DX001 (ip), vehicle: saline with Tween-80) was 98 % of control and the T/C (dose: 400.0 mg/kg/injection, schedule: Q01DX001 (ip), vehicle: saline with Tween-80) was 93 % of control.

With `c1ccc2c(CNC3CCCCC3)c[nH]c2c1` the T/C (dose: 50.0 mg/kg/injection, schedule: Q01DX001 (ip), vehicle: carboxymethylcellulose (CMC)) was 90 % of control, the T/C [1] was 90 % of control and the T/C [2] was 97 % of control. For the same compound, the T/C [3] was 98 % of control.

`CCOC(=O)c1ccc(NP(=S)(OCC)OCC)cc1` was tested, and the T/C (dose: 50.0 mg/kg/injection, schedule: Q01DX009 (ip), vehicle: saline with Tween-80) was 94 % of control, the T/C [4] was 94 % of control and the T/C [5] was 96 % of control.

For `Cn1cnc([N+](=O)[O-])c1Sc1c[nH]c(=O)[nH]c1=O`, the T/C (dose: 25.0 mg/kg/injection, schedule: Q04DX003 (ip), vehicle: saline) was 107 % of control, the T/C (dose: 50.0 mg/kg/injection, schedule: Q04DX003 (ip), vehicle: saline) was 96 % of control and the T/C [6] was 104 % of control. For the same compound, the T/C [7] was 93 % of control and the T/C [8] was 94 % of control.

`O=C(O)c1cccn1-c1cccc2c(-n3cccc3C(=O)O)cccc12` was tested, and the T/C (dose: 50.0 mg/kg/injection, schedule: Q04DX002 (ip), vehicle: saline + alcohol) was 99 % of control, the T/C (dose: 100.0 mg/kg/injection, schedule: Q04DX002 (ip), vehicle: saline + alcohol) was 89 % of control and the T/C (dose: 200.0 mg/kg/injection, schedule: Q04DX002 (ip), vehicle: saline + alcohol) was 96 % of control.

With `CCOC(=O)CCCc1c(C)[nH]c2ccc(Cl)cc12` the T/C (dose: 100.0 mg/kg/injection, schedule: Q04DX002 (ip), vehicle: Klucel (hydroxypropylcellulose) (HPC)) was 98 % of control, the T/C (dose: 200.0 mg/kg/injection, schedule: Q04DX002 (ip), vehicle: Klucel (hydroxypropylcellulose) (HPC)) was 102 % of control and the T/C (dose: 400.0 mg/kg/injection, schedule: Q04DX002 (ip), vehicle: Klucel (hydroxypropylcellulose) (HPC)) was 91 % of control.

With `CCCCN(CCCC)CC(O)c1cc(OC)c2cc(Cl)cc(Cl)c2n1` (stereo not given) the T/C [9] was 98 % of control, the T/C [10] was 91 % of control and the T/C [11] was 94 % of control.

`CN(C)c1ccc(/C=N/NC(=O)c2ccccc2NC(=O)c2ccccc2)cc1` was tested, and the T/C [12] was 89 % of control, the T/C [13] was 100 % of control and the T/C [14] was 89 % of control.

With `CC1(C)C2CCC(CCOC(=O)COc3ccc(Cl)cc3Cl)C1C2` (stereo not given) the T/C [4] was 104 % of control and the T/C [5] was 94 % of control.

`O=C1CNC(=O)N1` was tested, and the T/C (dose: 50.0 mg/kg/injection, schedule: Q01DX009 (ip), vehicle: saline) was 105 % of control, the T/C (dose: 100.0 mg/kg/injection, schedule: Q01DX009 (ip), vehicle: saline) was 107 % of control and the T/C [6] was 94 % of control. For the same compound, the T/C (dose: 200.0 mg/kg/injection, schedule: Q01DX009 (ip), vehicle: saline) was 96 % of control, the T/C [7] was 100 % of control and the T/C (dose: 400.0 mg/kg/injection, schedule: Q01DX009 (ip), vehicle: saline) was 96 % of control. The T/C [8] was 98 % of control.

With `CCC(C(=O)OC)C1CCCCC1` (stereo not given) the T/C [4] was 100 % of control, the T/C [9] was 103 % of control and the T/C [5] was 87 % of control. For the same compound, the T/C [10] was 95 % of control, the T/C [15] was 92 % of control and the T/C [11] was 95 % of control.

With `Cc1ccc(C)c(Nc2nc(Cl)nc3ncn(C)c23)c1` the T/C [16] was 103 % of control, the T/C [17] was 102 % of control and the T/C [18] was 90 % of control. The T/C [19] was 117 % of control, the T/C [20] was 94 % of control and the T/C [21] was 110 % of control.

In the case of `O=C(O)CC(SC(CC(=O)O)C(F)(F)C(F)(F)C(F)(F)F)C(F)(F)C(F)(F)C(F)(F)F` (stereo not given), the T/C [4] is reported as 94 % of control, the T/C [1] is reported as 108 % of control and the T/C [5] is reported as 97 % of control. The T/C [2] was 97 % of control, the T/C [15] was 94 % of control and the T/C [3] was 88 % of control.

With `O=C(CCNC(=O)OCc1ccccc1)NC(Cc1ccccc1)C(=O)OCc1ccccc1` (stereo not given) the T/C [9] was 103 % of control, the T/C [10] was 97 % of control and the T/C [11] was 95 % of control.

In the case of `CC1(C)C2CCC1(C(=O)O)C(=O)C2` (stereo not given), the T/C [4] is reported as 96 % of control and the T/C [5] is reported as 95 % of control.

In the case of `O=C1/C(=C\c2ccccn2)CCCc2ccccc21`, the T/C (dose: 25.0 mg/kg/injection, schedule: Q01DX009 (ip), vehicle: Klucel (hydroxypropylcellulose) (HPC)) is reported as 102 % of control, the T/C (dose: 50.0 mg/kg/injection, schedule: Q01DX009 (ip), vehicle: Klucel (hydroxypropylcellulose) (HPC)) is reported as 98 % of control and the T/C (dose: 50.0 mg/kg/injection, schedule: Q04DX003 (ip), vehicle: Klucel (hydroxypropylcellulose) (HPC)) is reported as 98 % of control. The T/C [12] was 101 % of control, the T/C [1] was 98 % of control and the T/C (dose: 100.0 mg/kg/injection, schedule: Q04DX003 (ip), vehicle: carboxymethylcellulose (CMC)) was 96 % of control. The T/C [13] was 100 % of control, the T/C [2] was 102 % of control and the T/C (dose: 200.0 mg/kg/injection, schedule: Q04DX003 (ip), vehicle: carboxymethylcellulose (CMC)) was 100 % of control. The T/C [14] was 102 % of control, the T/C [3] was 93 % of control and the T/C (dose: 400.0 mg/kg/injection, schedule: Q04DX003 (ip), vehicle: carboxymethylcellulose (CMC)) was 156 % of control. For the same compound, the T/C (dose: 800.0 mg/kg/injection, schedule: Q04DX003 (ip), vehicle: Klucel (hydroxypropylcellulose) (HPC)) was 104 % of control.

With `O=C(CCl)Nc1ccc([N+](=O)[O-])cc1` the T/C (dose: 25.0 mg/kg/injection, schedule: Q04DX002 (ip), vehicle: saline with Tween-80) was 103 % of control, the T/C (dose: 50.0 mg/kg/injection, schedule: Q04DX002 (ip), vehicle: saline with Tween-80) was 93 % of control and the T/C [22] was 97 % of control.

For `CCOC(=O)C[Si](C)(c1ccccc1)c1ccccc1`, the T/C (dose: 100.0 mg/kg/injection, schedule: Q01DX001 (ip), vehicle: saline) was 108 % of control, the T/C (dose: 200.0 mg/kg/injection, schedule: Q01DX001 (ip), vehicle: saline) was 94 % of control and the T/C (dose: 400.0 mg/kg/injection, schedule: Q01DX001 (ip), vehicle: saline) was 89 % of control.

In the case of `CC(=O)C1(Cl)CCC(C(C)(C)C)CC1` (stereo not given), the T/C [22] is reported as 111 % of control, the T/C (dose: 200.0 mg/kg/injection, schedule: Q04DX002 (ip), vehicle: saline with Tween-80) is reported as 103 % of control and the T/C (dose: 400.0 mg/kg/injection, schedule: Q04DX002 (ip), vehicle: saline with Tween-80) is reported as 103 % of control.

`COc1ccccc1OC` was tested, and the T/C [6] was 97 % of control, the T/C [7] was 103 % of control and the T/C [8] was 86 % of control.

In the case of `C=CCc1cn(C2OC(COC(=O)c3ccc(Cl)cc3)C(OC(=O)c3ccc(Cl)cc3)C2O)c(=O)[nH]c1=O` (stereo not given), the T/C (dose: 100.0 mg/kg/injection, schedule: Q01DX005 (ip), vehicle: saline) is reported as 90 % of control and the T/C (dose: 200.0 mg/kg/injection, schedule: Q01DX005 (ip), vehicle: saline) is reported as 91 % of control.

`CCCB(O)O` was tested, and the T/C [16] was 100 % of control, the T/C [17] was 106 % of control and the T/C [18] was 101 % of control. For the same compound, the T/C [19] was 105 % of control, the T/C [20] was 101 % of control and the T/C [21] was 106 % of control.

`CCCCOP1(=O)C=C(C)CC1` (stereo not given) was tested, and the T/C [9] was 90 % of control, the T/C [10] was 97 % of control and the T/C [11] was 92 % of control.
